Reference: patent publication US10251395B2, “Substituted furano-/thienocycloalkylamino-2-pyrimidine derivatives and use thereof for controlling undesired plant growth” (Bayer CropScience Aktiengesellschaft, priority 2015, dated 2019)

What was measured:
Abutilon theophrasti [1] = assay: Pre-emergence herbicidal effect; type: in vivo; settings: scored visually after 3 weeks
Method in brief: (§1)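 Scoring: visual, 3 weeks, % vs untreated (100% = died). Treatment: WP or EC in water, 0.2% wetting agent, sprayed on covering soil after sowing in sandy loam.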

Alopecurus myosuroides [2] = assay: Pre-emergence herbicidal effect; type: in vivo; settings: scored visually after 3 weeks
Method in brief: as §1

Amaranthus retroflexus [3] = assay: Pre-emergence herbicidal effect; type: in vivo; settings: scored visually after 3 weeks
Method in brief: as §1

Echinochloa crus-galli [4] = assay: Pre-emergence herbicidal effect; type: in vivo; settings: scored visually after 3 weeks
Method in brief: as §1

Ipomoea purpurea [5] = assay: Pre-emergence herbicidal effect; type: in vivo; settings: scored visually after 3 weeks
Method in brief: as §1

Lolium multiflorum [6] = assay: Pre-emergence herbicidal effect; type: in vivo; settings: scored visually after 3 weeks
Method in brief: as §1

Matricaria inodora [7] = assay: Pre-emergence herbicidal effect; type: in vivo; settings: scored visually after 3 weeks
Method in brief: as §1

Polygonum convolvulus [8] = assay: Pre-emergence herbicidal effect; type: in vivo; settings: scored visually after 3 weeks
Method in brief: as §1

Setaria viridis [9] = assay: Pre-emergence herbicidal effect; type: in vivo; settings: scored visually after 3 weeks
Method in brief: as §1

Stellaria media [10] = assay: Pre-emergence herbicidal effect; type: in vivo; settings: scored visually after 3 weeks
Method in brief: as §1

Veronica persica [11] = assay: Pre-emergence herbicidal effect; type: in vivo; settings: scored visually after 3 weeks
Method in brief: as §1

Viola tricolor [12] = assay: Pre-emergence herbicidal effect; type: in vivo; settings: scored visually after 3 weeks
Method in brief: as §1

Abutilon theophrasti [13] = assay: Post-emergence herbicidal effect; type: in vivo; settings: assessed visually after about 3 weeks vs untreated controls
Method in brief: (§2)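 Herbicidal effect was rated visually roughly 3 weeks after foliar treatment, as % versus untreated plants, with 0% meaning the same as controls and 100% meaning dead. Plants were treated at the one-leaf stage in the greenhouse with aqueous WP or EC sprays at 600–800 L/ha containing 0.2% wetter.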

Alopecurus myosuroides [14] = assay: Post-emergence herbicidal effect; type: in vivo; settings: assessed visually after about 3 weeks vs untreated controls
Method in brief: as §2

Amaranthus retroflexus [15] = assay: Post-emergence herbicidal effect; type: in vivo; settings: assessed visually after about 3 weeks vs untreated controls
Method in brief: as §2

Avena fatua [16] = assay: Post-emergence herbicidal effect; type: in vivo; settings: 320 g/ha, assessed visually after about 3 weeks vs untreated controls
Method in brief: as §2

Echinochloa crus-galli [17] = assay: Post-emergence herbicidal effect; type: in vivo; settings: assessed visually after about 3 weeks vs untreated controls
Method in brief: as §2

Ipomoea purpurea [18] = assay: Post-emergence herbicidal effect; type: in vivo; settings: assessed visually after about 3 weeks vs untreated controls
Method in brief: as §2

Lolium multiflorum [19] = assay: Post-emergence herbicidal effect; type: in vivo; settings: assessed visually after about 3 weeks vs untreated controls
Method in brief: as §2

Polygonum convolvulus [20] = assay: Post-emergence herbicidal effect; type: in vivo; settings: assessed visually after about 3 weeks vs untreated controls
Method in brief: as §2

Setaria viridis [21] = assay: Post-emergence herbicidal effect; type: in vivo; settings: assessed visually after about 3 weeks vs untreated controls
Method in brief: as §2

Stellaria media [22] = assay: Post-emergence herbicidal effect; type: in vivo; settings: assessed visually after about 3 weeks vs untreated controls
Method in brief: as §2

Veronica persica [23] = assay: Post-emergence herbicidal effect; type: in vivo; settings: assessed visually after about 3 weeks vs untreated controls
Method in brief: as §2

Viola tricolor [24] = assay: Post-emergence herbicidal effect; type: in vivo; settings: assessed visually after about 3 weeks vs untreated controls
Method in brief: as §2

logP (HCOOH) = type: physicochemical; settings: HCOOH
Excerpt: Table 2 (physicochemical characterization of selected synthesis examples)

Avena fatua [25] = assay: Pre-emergence herbicidal effect; type: in vivo; settings: Dosage 320 g/ha, scored visually after 3 weeks
Method in brief: as §1

Matricaria inodora [26] = assay: Post-emergence herbicidal effect; type: in vivo; settings: assessed visually after about 3 weeks vs untreated controls
Method in brief: as §2

## Nc1nc(N[C@@H]2CCCc3sccc32)ncc1C(F)(F)F [compound 46]
Abutilon theophrasti [1]; Dosage 320 g/ha
  ABUTH pre-emergence efficacy (herbicidal activity): 80%
Alopecurus myosuroides [2]; Dosage 80 g/ha
  ALOMY pre-emergence efficacy (herbicidal activity): 100%
Alopecurus myosuroides [2]; Dosage 320 g/ha
  ALOMY pre-emergence efficacy (herbicidal activity): 100%
Amaranthus retroflexus [3]; Dosage 80 g/ha
  AMARE pre-emergence efficacy (herbicidal activity): 100%
Amaranthus retroflexus [3]; Dosage 320 g/ha
  AMARE pre-emergence efficacy (herbicidal activity): 100%
Echinochloa crus-galli [4]; Dosage 80 g/ha
  ECHCG pre-emergence efficacy (herbicidal activity): 100%
Echinochloa crus-galli [4]; Dosage 320 g/ha
  ECHCG pre-emergence efficacy (herbicidal activity): 100%
Ipomoea purpurea [5]; Dosage 320 g/ha
  PHBPU pre-emergence efficacy (herbicidal activity): 100%
Lolium multiflorum [6]; Dosage 80 g/ha
  LOLMU pre-emergence efficacy (herbicidal activity): 80%
Lolium multiflorum [6]; Dosage 320 g/ha
  LOLMU pre-emergence efficacy (herbicidal activity): 100%
Matricaria inodora [7]; Dosage 80 g/ha
  MATIN pre-emergence efficacy (herbicidal activity): 100%
Matricaria inodora [7]; Dosage 320 g/ha
  MATIN pre-emergence efficacy (herbicidal activity): 100%
Polygonum convolvulus [8]; Dosage 80 g/ha
  POLCO pre-emergence efficacy (herbicidal activity): 90%
Polygonum convolvulus [8]; Dosage 320 g/ha
  POLCO pre-emergence efficacy (herbicidal activity): 100%
Setaria viridis [9]; Dosage 80 g/ha
  SETVI pre-emergence efficacy (herbicidal activity): 100%
Setaria viridis [9]; Dosage 320 g/ha
  SETVI pre-emergence efficacy (herbicidal activity): 100%
Stellaria media [10]; Dosage 80 g/ha
  STEME pre-emergence efficacy (herbicidal activity): 100%
Stellaria media [10]; Dosage 320 g/ha
  STEME pre-emergence efficacy (herbicidal activity): 100%
Veronica persica [11]; Dosage 80 g/ha
  VERPE pre-emergence efficacy (herbicidal activity): 100%
Veronica persica [11]; Dosage 320 g/ha
  VERPE pre-emergence efficacy (herbicidal activity): 100%
Viola tricolor [12]; Dosage 80 g/ha
  VIOTR pre-emergence efficacy (herbicidal activity): 100%
Viola tricolor [12]; Dosage 320 g/ha
  VIOTR pre-emergence efficacy (herbicidal activity): 100%
Abutilon theophrasti [13]; 320 g/ha
  post-emergence efficacy ABUTH: 40%
Alopecurus myosuroides [14]; 80 g/ha
  post-emergence efficacy ALOMY: 90%
Alopecurus myosuroides [14]; 320 g/ha
  post-emergence efficacy ALOMY: 100%
Amaranthus retroflexus [15]; 80 g/ha
  post-emergence efficacy AMARE: 100%
Amaranthus retroflexus [15]; 320 g/ha
  post-emergence efficacy AMARE: 100%
Avena fatua [16]
  post-emergence efficacy AVEFA: 80%
Echinochloa crus-galli [17]; 80 g/ha
  post-emergence efficacy ECHCG: 100%
Echinochloa crus-galli [17]; 320 g/ha
  post-emergence efficacy ECHCG: 100%
Ipomoea purpurea [18]; 320 g/ha
  post-emergence efficacy PHBPU: 80%
Lolium multiflorum [19]; 80 g/ha
  post-emergence efficacy LOLMU: 80%
Lolium multiflorum [19]; 320 g/ha
  post-emergence efficacy LOLMU: 100%
Polygonum convolvulus [20]; 80 g/ha
  post-emergence efficacy POLCO: 90%
Polygonum convolvulus [20]; 320 g/ha
  post-emergence efficacy POLCO: 90%
Setaria viridis [21]; 80 g/ha
  post-emergence efficacy SETVI: 90%
Setaria viridis [21]; 320 g/ha
  post-emergence efficacy SETVI: 90%
Stellaria media [22]; 80 g/ha
  post-emergence efficacy STEME: 100%
Stellaria media [22]; 320 g/ha
  post-emergence efficacy STEME: 100%
Veronica persica [23]; 80 g/ha
  post-emergence efficacy VERPE: 80%
Veronica persica [23]; 320 g/ha
  post-emergence efficacy VERPE: 100%
Viola tricolor [24]; 80 g/ha
  post-emergence efficacy VIOTR: 80%
Viola tricolor [24]; 320 g/ha
  post-emergence efficacy VIOTR: 100%
logP (HCOOH)
  logP (HCOOH): oily; logP (HCOOH): 1.91; 1H NMR (CDCl3, 400 MHZ, δ in ppm): 1.80-1.95 (m,

## CC(=O)c1cnc(NC2CCCc3sc(C)cc32)nc1N (centres unmarked) [compound 283]
Abutilon theophrasti [1]; Dosage 80 g/ha
  ABUTH pre-emergence efficacy (herbicidal activity): 90%
Abutilon theophrasti [1]; Dosage 320 g/ha
  ABUTH pre-emergence efficacy (herbicidal activity): 100%
Alopecurus myosuroides [2]; Dosage 80 g/ha
  ALOMY pre-emergence efficacy (herbicidal activity): 80%
Alopecurus myosuroides [2]; Dosage 320 g/ha
  ALOMY pre-emergence efficacy (herbicidal activity): 100%
Amaranthus retroflexus [3]; Dosage 80 g/ha
  AMARE pre-emergence efficacy (herbicidal activity): 100%
Amaranthus retroflexus [3]; Dosage 320 g/ha
  AMARE pre-emergence efficacy (herbicidal activity): 100%
Avena fatua [25]
  AVEFA pre-emergence efficacy (herbicidal activity): 80%
Echinochloa crus-galli [4]; Dosage 80 g/ha
  ECHCG pre-emergence efficacy (herbicidal activity): 100%
Echinochloa crus-galli [4]; Dosage 320 g/ha
  ECHCG pre-emergence efficacy (herbicidal activity): 100%
Ipomoea purpurea [5]; Dosage 80 g/ha
  PHBPU pre-emergence efficacy (herbicidal activity): 60%
Ipomoea purpurea [5]; Dosage 320 g/ha
  PHBPU pre-emergence efficacy (herbicidal activity): 100%
Lolium multiflorum [6]; Dosage 80 g/ha
  LOLMU pre-emergence efficacy (herbicidal activity): 100%
Lolium multiflorum [6]; Dosage 320 g/ha
  LOLMU pre-emergence efficacy (herbicidal activity): 100%
Matricaria inodora [7]; Dosage 80 g/ha
  MATIN pre-emergence efficacy (herbicidal activity): 100%
Matricaria inodora [7]; Dosage 320 g/ha
  MATIN pre-emergence efficacy (herbicidal activity): 100%
Polygonum convolvulus [8]; Dosage 80 g/ha
  POLCO pre-emergence efficacy (herbicidal activity): 100%
Polygonum convolvulus [8]; Dosage 320 g/ha
  POLCO pre-emergence efficacy (herbicidal activity): 100%
Setaria viridis [9]; Dosage 80 g/ha
  SETVI pre-emergence efficacy (herbicidal activity): 100%
Setaria viridis [9]; Dosage 320 g/ha
  SETVI pre-emergence efficacy (herbicidal activity): 100%
Stellaria media [10]; Dosage 80 g/ha
  STEME pre-emergence efficacy (herbicidal activity): 100%
Stellaria media [10]; Dosage 320 g/ha
  STEME pre-emergence efficacy (herbicidal activity): 100%
Veronica persica [11]; Dosage 320 g/ha
  VERPE pre-emergence efficacy (herbicidal activity): 100%
Viola tricolor [12]; Dosage 80 g/ha
  VIOTR pre-emergence efficacy (herbicidal activity): 100%
Viola tricolor [12]; Dosage 320 g/ha
  VIOTR pre-emergence efficacy (herbicidal activity): 100%
Abutilon theophrasti [13]; 80 g/ha
  post-emergence efficacy ABUTH: 90%
Abutilon theophrasti [13]; 320 g/ha
  post-emergence efficacy ABUTH: 90%
Alopecurus myosuroides [14]; 320 g/ha
  post-emergence efficacy ALOMY: 90%
Amaranthus retroflexus [15]; 80 g/ha
  post-emergence efficacy AMARE: 90%
Amaranthus retroflexus [15]; 320 g/ha
  post-emergence efficacy AMARE: 100%
Avena fatua [16]
  post-emergence efficacy AVEFA: 80%
Echinochloa crus-galli [17]; 80 g/ha
  post-emergence efficacy ECHCG: 80%
Echinochloa crus-galli [17]; 320 g/ha
  post-emergence efficacy ECHCG: 100%
Ipomoea purpurea [18]; 80 g/ha
  post-emergence efficacy PHBPU: 80%
Ipomoea purpurea [18]; 320 g/ha
  post-emergence efficacy PHBPU: 90%
Lolium multiflorum [19]; 320 g/ha
  post-emergence efficacy LOLMU: 100%
Matricaria inodora [26]; 80 g/ha
  post-emergence efficacy MATIN: 90%
Matricaria inodora [26]; 320 g/ha
  post-emergence efficacy MATIN: 90%
Polygonum convolvulus [20]; 320 g/ha
  post-emergence efficacy POLCO: 70%
Setaria viridis [21]; 80 g/ha
  post-emergence efficacy SETVI: 50%
Setaria viridis [21]; 320 g/ha
  post-emergence efficacy SETVI: 90%
Stellaria media [22]; 80 g/ha
  post-emergence efficacy STEME: 100%
Stellaria media [22]; 320 g/ha
  post-emergence efficacy STEME: 100%
Veronica persica [23]; 320 g/ha
  post-emergence efficacy VERPE: 100%
Viola tricolor [24]; 80 g/ha
  post-emergence efficacy VIOTR: 90%
Viola tricolor [24]; 320 g/ha
  post-emergence efficacy VIOTR: 100%
